Reference: patent US20230021562A1, “[…] D[…]-1 INHIBITORS” (priority 2019, published 2023)
“And” between values parts separate entries of the source, which are not always exact repeats. Equal values may be shown once. Read-outs that look alike come from different tables or passages of the source.

Assays:
[1] = test system: MOLP-8 human multiple myeloma cell line; test: MOLP8 Caspase-Glo 3/7 luminescent assay; format: cell-based; conditions: averaged over all runs on all batches
Excerpt: (§1) MCL-1 is a regulator of apoptosis and is highly over-expressed in tumor cells that escape cell death. The assay evaluates the cellular potency of small-molecule compounds targeting regulators of the apoptosis pathway, primarily MCL-1, Bfl-1, Bcl-2, and other proteins of the Bcl-2 family. Protein-protein inhibitors disrupting the interaction of anti-apoptotic regulators with BH3-domain proteins initiate apoptosis.
The Caspase-Glo® 3/7 Assay is a luminescent assay that measures caspase-3 and -7 activities in purified enzyme preparations or cultures of adherent or suspension cells. The assay provides a proluminescent caspase-3/7 substrate, which contains the tetrapeptide sequence DEVD. This substrate is cleaved to release aminoluciferin, a substrate of luciferase used in the production of light. Addition of the single Caspase-Glo® 3/7 Reagent in an “add-mix-measure” format results in cell lysis, followed by caspase cleavage of the substrate and generation of a “glow-type” luminescent signal.
This assay uses the MOLP-8 human multiple myeloma cell line, which is sensitive to MCL-1 inhibition.
Cell cultures were maintained between 0.2 and 2.0×10^6 cells/mL. The cells were harvested by collection in 50 mL conical tubes. The cells were then pelleted at 500 g for 5 mins before removing supernatant and resuspension in fresh pre-warmed culture medium. The cells were counted and diluted as needed.
The assay reagent was prepared by transferring the buffer solution to the substrate vial and mixing. The solution may be stored for up to 1 week at 4° C. with negligible loss of signal.
Compounds were delivered in assay-ready plates (Proxiplate) and stored at −20° C.
Assays always include 1 reference compound plate containing reference compounds. The plates were spotted with 40 nL of compounds (0.5% DMSO final in cells; serial dilution; 30 μM highest conc. 1/3 dilution, 10 doses, duplicates). The compounds were used at room temperature and 4 μL of pre-warmed media was added to all wells except column 2 and 23. The negative control was prepared by adding 1% DMSO in media. The positive control was prepared by adding the appropriate positive control compound in final concentration of 60 μM in media. The plate was prepared by adding 4 μL negative control to column 23, 4 μL positive control to column 2 and 4 μL cell suspension to all wells in the plate. The plate with cells was then incubated at 37° C. for 2 hours. The assay signal reagent is the Caspase-Glo solution described above, and 8 μL was added to all wells. The plates were then sealed and measured after 30 minutes.
The activity of a test compound was calculated as percent change in apoptosis induction as follows: […]

[2] = molecular target: Myeloid Cell Leukemia 1 (Mcl-1) (Homo sapiens, UniProt Q07820); test: biochemical; format: binding; conditions: HTRF Ki (nM)
Myeloid Cell Leukemia 1 (Mcl-1), sequence (Q07820 whole entry): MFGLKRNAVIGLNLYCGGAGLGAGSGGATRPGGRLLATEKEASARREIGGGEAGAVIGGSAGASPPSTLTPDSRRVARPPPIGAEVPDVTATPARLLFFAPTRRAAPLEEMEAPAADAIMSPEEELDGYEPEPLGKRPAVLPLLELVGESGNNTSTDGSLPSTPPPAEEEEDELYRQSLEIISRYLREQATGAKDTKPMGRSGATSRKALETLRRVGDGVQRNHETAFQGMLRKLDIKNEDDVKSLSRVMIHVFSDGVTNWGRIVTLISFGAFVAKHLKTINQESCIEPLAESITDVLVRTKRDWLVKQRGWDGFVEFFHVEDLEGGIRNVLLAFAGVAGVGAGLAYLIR

MOLP8 cell line = test: MOLP8 CellEvent Caspase-3/7 Green live-cell IncuCyte apoptosis assay; format: cell-based, human; conditions: averaged values
Method: as §1
Activation of the apoptotic pathway was measured using the CellEvent™ Caspase-3/7 Green ReadyProbes™ Reagent (Thermo Fisher C10423, C10723). This assay produces a green fluorescent stain in cells that enter the apoptosis pathway. CellEvent® Caspase-3/7 Green reagent is a four amino acid peptide (DEVD) conjugated to a nucleic acid-binding dye that is non-fluorescent when not bound to DNA. The CellEvent® Caspase-3/7 Green reagent is intrinsically non-fluorescent, as the DEVD peptide inhibits binding of the dye to DNA. Upon activation of caspase-3/7 in apoptotic cells, the DEVD peptide is cleaved and the free dye can bind DNA, generating a bright green fluorescence. The activation of Caspase-3 and Caspase-7 is downstream of inhibition of MCL-1 or other apoptosis inhibiting proteins in cell lines that are dependent on them.
The live-cell readout on the IncuCyte permits tracking over time of the Caspase activation. […] The IncuCyte readout also allows one to normalize for cell number, as the suspension cells are hard to distribute evenly.
Signals were measured every 2 h for a duration of 22 h. The ratio of the Caspase mask to the Confluence mask, per image, as raw data, was calculated and the kinetic trace for every well was exported to Genedata Screener for analysis.
In Genedata Screener values for 6 h, 12 h, and 22 h from the kinetic traces were extracted. The values were normalized against negative controls (untreated cells). A standard dose-response analysis was performed on the normalized data.
The following data was reported at each of the following three aforementioned time points: (a) The dose-response curve, (b) The qAC50 and qAC50 Mode, and (c) Max Activity.
Cells were maintained in culture medium containing 10% Heat Inactivated (HI) FBS, 2 mM L-Glutamine and 50 μg/mL Gentamycin phenol red free RPMI-1640. Cells were split at 0.4 million/mL twice a week.
On Day 1, plates containing individual wells with test compounds at 10 mM concentration, 150 nL per well. The final concentrations range from […] compound (and no compound control) and compounds were thawed at room temperature for 1 hour. 25 μl of prewarmed medium was added into each well by multidrop (column 1, 3-22, 24), followed by addition of DMSO control (0.6% DMSO) in column 2. The plate was sealed using Breathe-Easy® sealing membrane and shaken for 30 min at room temperature to dissolve the test compound(s) in medium. The plate was then kept in the incubator for 1 hour at 37° C., 5% CO2.
MOLP8 cells in medium at […] (20000/50 μl final in assay) were prepared with CellEvent™ Caspase-3/7 Green Detection Reagent at 4 μM (2 μM final in assay). Once prepared, the cells were added to the test compound plate in an amount of 20000 and the plate was immediately placed in the IncuCyte and imaging started using following settings: 10× objective, 2 s exposure time in green channel, interval of 2 h, acquisition stopped after 22 h.
For analysis in IncuCyte, a Basic Analysis protocol was defined to calculate the “confluence” and “caspase” areas from the “Phase” and “green” images, respectively, as follows: (a) Confluence: Segmentation Adjustment 1, Hole Fill 0, Adjust Size −2, No filters (b) Caspase: Top-Hat segmentation, Radius 10, Threshold 0.3 GCU, Edge Split On with sensitivity 0, Hole Fill 0, Adjust Size 1, and filter on a minimum Area of 20 μm^2. The analyzer is trained on a sufficient number of positive and negative control wells, as well as compound treated wells, verifying that the “confluence” layer detects both live and dead (condensed) cells. […]

[3] = MOLP8 cells, 2 hours incubation, read-out: MOLP8 Caspase-Glo AC50
[4] = read-out: MOLP8 Caspase 3/7 AC50 at 6 h, MOLP8 cells, 6 h
[5] = read-out: MOLP8 Caspase 3/7 AC50 at 12 h, MOLP8 cells, 12 h
[6] = read-out: MOLP8 Caspase 3/7 AC50 at 22 h, MOLP8 cells, 22 h
[7] = Homo sapiens, MOLP-8, 6 h, read-out: MOLP8 Caspase 3/7 AC50 at 6 h (μM), MOLP8 cells, 6 h
[8] = Homo sapiens, MOLP-8, 12 h, read-out: MOLP8 Caspase 3/7 AC50 at 12 h (μM), MOLP8 cells, 12 h
[9] = Homo sapiens, MOLP-8, 22 h, read-out: MOLP8 Caspase 3/7 AC50 at 22 h (μM), MOLP8 cells, 22 h
[10] = Homo sapiens, MOLP-8, 2 h, read-out: MOLP8 Caspase-Glo AC50 (nM), MOLP8 cells, 2 hours incubation
[11] = read-out: MOLP8 Caspase-Glo AC50, MOLP8 cells, 2 hours incubation

SMILES	AC50 [1, 3] [nM]	Ki [2]	AC50 (MOLP8 cell line; [4]) [µM]	AC50 (MOLP8 cell line; [5]) [µM]	AC50 (MOLP8 cell line; [6]) [µM]	AC50 ([1]; Homo sapiens, MOLP-8, 2 h, MOLP8 cells, 2 hours incubation, read-out: MOLP8 Caspase-Glo AC50) [nM]	AC50 (MOLP8 cell line; [7]) [µM]	AC50 (MOLP8 cell line; [8]) [µM]	AC50 (MOLP8 cell line; [9]) [µM]	AC50 [1, 10] [nM]	AC50 [1, 11] [nM]
Cc1nn(CCCN2CCOCC2)c2c1-c1c(Cl)ccc3c(c(C(=O)O)n(C)c13)CCCOc1cc(cc3ccccc13)SCc1cc(nn1C)CN(C)C2 (single isomer, unassigned) [Compound 33]	94	0.03 nM	0.3	0.24	0.34	–	–	–	–	–	–
Cc1c2c(nn1C)CSCc1cc(nn1CC1CCOCC1)CSc1cc(c3ccccc3c1)OCCCc1c(C(=O)O)n(C)c3c-2c(Cl)ccc13 [Compound 11]	–	0.47 nM and 0.43 nM	–	–	–	385	0.37	0.43	0.41	–	–
Cc1c2c(nn1CCN1CCOCC1)CN(C)Cc1cc(n(C)n1)CSc1cc(c3ccccc3c1)OCCCc1c(C(=O)O)n(C)c3c-2c(Cl)ccc13 (single isomer, unassigned) [Compound 14]	3680	2.85 nM and 2.53 nM	7.67	7.16	7.33	–	–	–	–	–	–
Cc1c2c(nn1CCO)CN(C)Cc1cc(n(C)n1)CSc1cc(c3ccccc3c1)OCCCc1c(C(=O)O)n(C)c3c-2c(Cl)ccc13 (single isomer, unassigned) [Compound 38]	–	0.7 nM and 0.48 nM	5.49	5.39	5.16	–	–	–	–	3050	–
Cc1c2c(nn1CCN1CCOCC1)CN(C)Cc1cc(n(C)n1)CSc1cc(c3ccccc3c1)OCCCc1c(C(=O)O)n(C)c3c-2c(Cl)ccc13 (single isomer, unassigned) [Compound 13]	75	0.05 nM and 0.04 nM	0.15	0.15	0.17	–	–	–	–	–	–
COCCn1nc2c(c1C)-c1c(Cl)ccc3c(c(C(=O)O)n(C)c13)CCCOc1cc(cc3ccccc13)SCc1cc(nn1C)CN(C)C2 (single isomer, unassigned) [Compound 27]	–	0.03 nM and 0.06 nM	0.1	0.1	0.09	–	–	–	–	–	36
Cc1[nH]nc2c1-c1c(Cl)ccc3c(c(C(=O)O)n(C)c13)CCCOc1cc(cc3ccccc13)SCc1cc(nn1C)CN(C)C2 (single isomer, unassigned) [Compound 24]	–	1.2 nM and 1.87 nM	~10.5	12	11.5	–	–	–	–	–	8160
Cc1nn(CCN(C)C)c2c1-c1c(Cl)ccc3c(c(C(=O)O)n(C)c13)CCCOc1cc(cc3ccccc13)SCc1cc(nn1C)CN(C)C2 (single isomer, unassigned) [Compound 22]	14500	3.73 nM and 3.07 nM	~17.4	~17	~17	–	–	–	–	–	–
Cc1c2c(nn1CC1CCOCC1)CN(C)Cc1cc(n(C)n1)CSc1cc(c3ccccc3c1)OCCCc1c(C(=O)O)n(C)c3c-2c(Cl)ccc13 (single isomer, unassigned) [Compound 17]	564	0.41 nM and 0.66 nM	1.23	1.24	1.22	–	–	–	–	–	–
COCCn1nc(C)c2c1CN(C)Cc1cc(n(C)n1)CSc1cc(c3ccccc3c1)OCCCc1c(C(=O)O)n(C)c3c-2c(Cl)ccc13 (single isomer, unassigned) [Compound 26]	–	4.14 nM and 5.54 nM	8.29	7.96	8.61	–	–	–	–	4330	–
COCCOCCn1nc(C)c2c1CN(C)Cc1cc(n(C)n1)CSc1cc(c3ccccc3c1)OCCCc1c(C(=O)O)n(C)c3c-2c(Cl)ccc13 (single isomer, unassigned) [Compound 30]	971	0.81 nM and 0.75 nM	2.01	2.14	2.23	–	–	–	–	–	–
COCCn1nc2cc1CSc1cc(c3ccccc3c1)OCCCc1c(C(=O)O)n(C)c3c(c(Cl)ccc13)-c1c(nn(C)c1C)CSC2 [Compound 10]	–	0.11 nM	–	–	–	–	0.2	0.22	0.21	49	–
Cc1nn(CC2CCOCC2)c2c1-c1c(Cl)ccc3c(c(C(=O)O)n(C)c13)CCCOc1cc(cc3ccccc13)SCc1cc(nn1C)CN(C)C2 (single isomer, unassigned) [Compound 15]	67	0.09 nM and 0.03 nM	0.23	0.23	0.19	–	–	–	–	–	–
Cc1c2c(nn1CCN(C)C)CN(C)Cc1cc(n(C)n1)CSc1cc(c3ccccc3c1)OCCCc1c(C(=O)O)n(C)c3c-2c(Cl)ccc13 (single isomer, unassigned) [Compound 20]	83	0.06 nM and 0.03 nM	0.29	0.32	0.33	–	–	–	–	–	–
Cc1c2c(nn1C)CSCc1cc(nn1CCO)CSc1cc(c3ccccc3c1)OCCCc1c(C(=O)O)n(C)c3c-2c(Cl)ccc13 [Compound 6]	–	0.16 nM	–	–	–	–	0.71	0.63	0.48	414	–
Cc1[nH]nc2c1-c1c(Cl)ccc3c(c(C(=O)O)n(C)c13)CCCOc1cc(cc3ccccc13)SCc1cc(nn1C)CN(C)C2 (single isomer, unassigned) [Compound 23]	–	0.07 nM and 0.03 nM	0.45	0.45	0.42	–	–	–	–	–	215
